# Measurements as given in ChEMBL document CHEMBL3046269, “The repelling effect of plant secondary metabolites on water voles, Arvicola amphibius” (2013).
# The source made the active and inactive calls. No cut-off for these calls is given here.
# Assays:
# [1] = tested on: Arvicola amphibius; experiment: Herbivore repellent activity against adult Arvicola amphibius assessed as duration of stay within test box with apple pieces by T-maze test (reference value: 59.20 +/-31.75%); type: functional
# [2] = tested on: Arvicola amphibius; experiment: Herbivore repellent activity against adult Arvicola amphibius assessed as time required to enter the test box with apple pieces for first time by T-maze test (reference value: 438.43 +/-312.37 secs); type: functional
# [3] = tested on: Arvicola amphibius; experiment: Herbivore repellent activity against adult Arvicola amphibius assessed as duration of stay within test box with apple pieces by T-maze test (reference value: 59.19 +/-19.83%); type: functional
# [4] = tested on: Arvicola amphibius; experiment: Herbivore repellent activity against adult Arvicola amphibius assessed as time required to enter the test box with apple pieces for first time by T-maze test (reference value: 277.50 +/-166.07 secs); type: functional
# [5] = tested on: Arvicola amphibius; experiment: Herbivore repellent activity against adult Arvicola amphibius assessed as decrease in frequency of entry of test box with apple pieces by T-maze test; type: functional, organism-based
# [6] = tested on: Arvicola amphibius; experiment: Herbivore repellent activity against adult Arvicola amphibius assessed as duration of stay within test box with apple pieces by T-maze test (reference value: 85.30 +/-13.79%); type: functional
# [7] = tested on: Arvicola amphibius; experiment: Herbivore repellent activity against adult Arvicola amphibius assessed as time required to enter the test box with apple pieces for first time by T-maze test (reference value: 268.50 +/-417.85 secs); type: functional
# [8] = tested on: Arvicola amphibius; experiment: Herbivore repellent activity against adult Arvicola amphibius assessed as duration of stay within test box with apple pieces by T-maze test (reference value: 56.72 +/-13.89%); type: functional
# [9] = tested on: Arvicola amphibius; experiment: Herbivore repellent activity against adult Arvicola amphibius assessed as time required to enter the test box with apple pieces for first time by T-maze test (reference value: 380.25 +/-321.70 secs); type: functional
# [10] = tested on: Arvicola amphibius; experiment: Herbivore repellent activity against adult Arvicola amphibius assessed as duration of stay within test box with apple pieces by T-maze test (reference value: 75.53 +/-16.57%); type: functional
# [11] = tested on: Arvicola amphibius; experiment: Herbivore repellent activity against adult Arvicola amphibius assessed as time required to enter the test box with apple pieces for first time by T-maze test (reference value: 240.75 +/-184.07 secs); type: functional
smiles,measurement,setting,value
CCCS [1-PROPANETHIOL],Activity,[1],40.8%
same,Time,[2],996.29 s
CC(C)=CCC/C(C)=C/CO [GERANIOL],Activity,[3],40.8%
same,Time,[4],326.38 s
CCCCCCCCCC(C)=O [METHYL NONYL KETONE],inhibition,[5],Active
same,Activity,[6],14.7%
same,Time,[7],888.38 s
CCCCCCCCC(=O)O [NONANOATE],Activity,[8],43.28%
same,Time,[9],507.75 s
CCCCC(=O)O [VALERIC ACID],Activity,[10],24.47%
same,Time,[11],769.13 s
